Entries after “also recorded” stand apart in the source; their conditions may differ. Where no end group is shown, it is not given here.
Key:
[1] = molecular target: T1, Porcine cholesterol esterase (Sus scrofa, UniProt A0A286ZKB1); assay: CE inhibitory activity assay (spectrophotometry); format: biochemical; conditions: for concentration dependence of CE inhibition rate: 0.2–1.0 mg/mL; for CE inhibition rate vs control group: all concentrations, p < 0.05; for comparative inhibitory activity on CE (in words): authors' ranking, for KQ7 partly integrating molecular dynamics
T1 sequence (A0A286ZKB1 1-682): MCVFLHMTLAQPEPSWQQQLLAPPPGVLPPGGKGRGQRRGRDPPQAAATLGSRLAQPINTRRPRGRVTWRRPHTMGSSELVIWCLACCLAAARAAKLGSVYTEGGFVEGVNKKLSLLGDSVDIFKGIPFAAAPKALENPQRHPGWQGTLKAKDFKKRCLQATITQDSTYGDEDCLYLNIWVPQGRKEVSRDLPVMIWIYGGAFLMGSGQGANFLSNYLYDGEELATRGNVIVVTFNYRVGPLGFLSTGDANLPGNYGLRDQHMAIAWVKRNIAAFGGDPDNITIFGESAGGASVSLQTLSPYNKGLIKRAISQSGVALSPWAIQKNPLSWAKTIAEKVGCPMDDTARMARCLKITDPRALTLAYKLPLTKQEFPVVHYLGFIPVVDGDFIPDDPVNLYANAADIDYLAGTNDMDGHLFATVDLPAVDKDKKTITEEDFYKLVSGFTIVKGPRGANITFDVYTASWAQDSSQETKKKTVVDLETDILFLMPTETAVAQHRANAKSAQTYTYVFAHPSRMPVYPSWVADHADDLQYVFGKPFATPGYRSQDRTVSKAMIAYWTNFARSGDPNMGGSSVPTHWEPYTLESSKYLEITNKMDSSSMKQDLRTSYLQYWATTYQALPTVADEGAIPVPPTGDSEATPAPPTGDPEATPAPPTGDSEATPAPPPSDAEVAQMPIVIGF
Protocol: (§1) Porcine cholesterol esterase and the ELISA kit were provided by Jiangsu JINGMEI Biotechnology Co., Ltd. (Yancheng, China).
(§2) In the formula, ODs: is the absorbance value of the sample group; ODsb: is the absorbance value of the sample blank group; ODc: is the absorbance value of the control group; and ODb: is the absorbance value of the blank group.
(§3) Each experimental sample was tested in triplicate, and the data were processed using IBM SPSS Statistics 26 software. Figures were generated using Origin 2018 and GraphPad Prism 8.0.2 software.

[2] = molecular target: T1, Porcine cholesterol esterase; assay: CE inhibitory activity after simulated gastrointestinal digestion (pepsin, trypsin); format: biochemical; conditions: for CE inhibition after digestion (in words): after simulated gastrointestinal digestion; for change of CE inhibition on digestion (in words): simulated gastrointestinal digestion, KQ7, QP13, VN10 at 60 min, RK7 within 120 min
Excerpt: as §1, §2
We dissolved the synthesized peptide aqueous solution in pepsin (enzyme: substrate 1:50 w/w) and adjusted the pH to 2 using 1 mol/L HCl. Then, we hydrolyzed this at 37 °C for 90 min, then adjusted the pH to 7.5 with 1 mol/L NaOH solution and added trypsin (enzyme: substrate 1:50 w/w). Next, we hydrolyzed this at 37 °C for 180 min in a constant temperature water bath. Subsequently, we inactivated this by boiling it in a 95 °C water bath for 10 min. Finally, we took samples every 30 min and stored each sample at −20 °C for later analysis.
The determination of CE activity refers to Section 2.3.5.
as §3

[3] = peptide isolated from soybean glycinin; ref [26]; cited from earlier work
Excerpt: These carbon–hydrogen bonds may have stabilized the QP13–CE complex to some extent, complementing the hydrogen bonds. It formed π–Alkyl bonds with Ile426, Phe119, Ala117, Leu69, and Leu124 through hydrophobic interactions. QP13 also interacted with Asp434, Lys445, Asn118, Met424, Ile426, Tyr75, Thr68, Tyr427, Tyr123, Leu69, Gln440, Asn112, Phe119, and Arg63 through van der Waals f ...

| Compound | concentration dependence of CE inhibition rate [1] | CE inhibition rate vs control group [1] | CE inhibition after digestion (in words) [2] | change of CE inhibition on digestion (in words) [2] | comparative inhibitory activity on CE (in words) [1] | IC50 ([1]; from inhibition curve, spectrophotometry, triplicate) | cholesterol effect [3] |
| --- | --- | --- | --- | --- | --- | --- | --- |
| QEPVLGPVRGPFP [QP13] | increased with the increase of peptide mass concentration | significantly higher than those of the control group at all concentrations (p < 0.05) | effective in inhibiting CE after simulated gastrointestinal digestion | significant increases in inhibition activity (p < 0.05) |  |  |  |
| KVLPVPQ [KQ7, Lys-Val-Leu-Pro-Val-Pro-Gln] | increased with the increase of peptide mass concentration | significantly higher than those of the control group at all concentrations (p < 0.05) | effective in inhibiting CE after simulated gastrointestinal digestion | significant increase in the inhibitory activity; also recorded: significant increase in CE inhibition activity at 60 min during digestion (p < 0.05); also recorded: significantly enhanced after simulated gastrointestinal digestion | highest inhibitory activity on CE; also recorded: higher inhibitory activity against CE compared to RK7; also recorded: highest inhibitory activity against CE |  |  |
| VYPFPGPIPN [VN10] | increased with the increase of peptide mass concentration | significantly higher than those of the control group at all concentrations (p < 0.05) | effective in inhibiting CE after simulated gastrointestinal digestion | significant increases in inhibition activity (p < 0.05) |  |  |  |
| CC(C)c1c(C(=O)Nc2ccccc2)c(-c2ccccc2)c(-c2ccc(F)cc2)n1CC[C@@H](O)C[C@@H](O)CC(=O)O [Atorvastatin, reference compound] |  |  |  |  | strongest inhibitory effect on CE | 854 µM |  |
| RPKHPIK [RK7, Arg-Pro-Lys-His-Pro-Ile-Lys] | increased with the increase of peptide mass concentration | significantly higher than those of the control group at all concentrations (p < 0.05) | effective in inhibiting CE after simulated gastrointestinal digestion | significant increase in the inhibitory activity; also recorded: significant changes observed (p < 0.05); also recorded: significantly enhanced after simulated gastrointestinal digestion |  |  |  |
| Leu–Pro–Tyr–Pro |  |  |  |  |  |  | demonstrated low cholesterol effects |
